ChEMBL document CHEMBL5053522, “Synthesis of 3-octadecanoxypropyl 6-deoxy-6-sulfo-α-d-glucopyranoside (ODSG) as a lipase-resistant SQAP derivative” (2021)

Test system: A549
Experiment: Cytotoxicity against human A549 cells assessed as survival rate upto 170 uM by CCK8 assay relative to control
Format: functional
Settings: up to 170 µM

| Compound | Activity |
| --- | --- |
| CCCCCCCCCCCCCCCCCCOCCCO[C@H]1O[C@H](CS(=O)(=O)[O-])[C@@H](O)[C@H](O)[C@H]1O.[Na+] | >70% |
| CCCCCCCCCCCCCCCCCC(=O)OCCCO[C@H]1O[C@H](CS(=O)(=O)[O-])[C@@H](O)[C@H](O)[C@H]1O.[Na+] | 70% |
